Test results as given in ChEMBL document CHEMBL1201862, “PubChem BioAssay data set” (2004).
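Cells were grown in 96-well plates and exposed to each compound for 48 hours at five concentrations; endpoints were interpolated linearly between bracketing concentrations, or set to the highest concentration if not reached. The concentration for 50% growth inhibition is given as GI50.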 Activity calls are given as the source filed them. No stated cut-off is given here; in the data, active = GI50 up to about 1.1 µM and inactive = higher.

Columns and labels:
Test in all cases: DTP human tumour cell line panel, 48 h
[1] = test system: NCI-H226
[2] = test system: HL-60
[3] = test system: PC-3
[4] = test system: COLO 205
[5] = test system: SF-539
[6] = test system: SW-620
[7] = test system: MDA-MB-435
[8] = test system: HCT-116
[9] = test system: NCI-H522
[10] = test system: HOP-62
[11] = test system: SR
[12] = test system: SF-295
[13] = test system: UACC-257
[14] = test system: SK-MEL-2
[15] = test system: HOP-92
[16] = test system: A549
[17] = test system: SN12C
[18] = test system: SK-MEL-28
[19] = test system: SK-MEL-5
[20] = test system: MDA-N

Row | SMILES | GI50 [1] | GI50 [2] | GI50 [3] | GI50 [4] | GI50 [5] | GI50 [6] | GI50 [7] | GI50 [8] | GI50 [9] | GI50 [10] | GI50 [11] | GI50 [12] | GI50 [13] | GI50 [14] | GI50 [15] | GI50 [16] | GI50 [17] | GI50 [18] | GI50 [19] | GI50 [20]
1 | CC(=O)OC12COC1CC(O)C1(C)C(=O)C(O)C3=C(C)C(O)CC(O)(C(OC(=O)c4ccccc4)C21)C3(C)C (stereo unspecified) | 6.01 µM (inactive) | 2.52 µM (inactive) | 3.03 µM (inactive) | 1.14 µM (inactive) | 1.16 µM (inactive) | 0.989 µM (active) | 0.408 µM (active) | 1.67 µM (inactive) | 0.638 µM (active) | 16.6 µM (inactive) | 5.12 µM (inactive) | 26.3 µM (inactive) | 5 µM (inactive) | 1.55 µM (inactive) | > 100 µM (inactive) | 7.33 µM (inactive) | 4.94 µM (inactive) | 3.38 µM (inactive) | 3.44 µM (inactive) | 
2 | CCOC(=O)C1=C(O)C(=O)c2ccccc2C1=O | 48.3 µM (inactive) | > 100 µM (inactive) |  | > 100 µM (inactive) | > 100 µM (inactive) | > 100 µM (inactive) |  | > 100 µM (inactive) | > 100 µM (inactive) | > 100 µM (inactive) | > 100 µM (inactive) | 96.6 µM (inactive) | > 100 µM (inactive) | > 100 µM (inactive) | > 100 µM (inactive) | > 100 µM (inactive) | > 100 µM (inactive) | > 100 µM (inactive) | 46.5 µM (inactive) | 
3 | Clc1cccc(N2CCN(CCCN3CCc4c([nH]c5ccccc45)C3c3cccnc3)CC2)c1 (stereo unspecified) | 18.1 µM (inactive) | 2.46 µM (inactive) |  | 2.88 µM (inactive) | 3.61 µM (inactive) | 13 µM (inactive) |  | 5.78 µM (inactive) | 11.8 µM (inactive) | 14.3 µM (inactive) | 2.29 µM (inactive) | 6.92 µM (inactive) | 4.34 µM (inactive) | 11 µM (inactive) | 8.69 µM (inactive) | 7.78 µM (inactive) | 12.8 µM (inactive) | 3.6 µM (inactive) | 5.32 µM (inactive) | 
4 | O=C1C(c2ccccc2)=C(c2ccccc2)C(c2ccccc2)/C1=C1\C(=O)C(c2ccccc2)=C(c2ccccc2)C1c1ccccc1 (stereo unspecified) | > 100 µM (inactive) | > 100 µM (inactive) |  | > 100 µM (inactive) | > 100 µM (inactive) | > 100 µM (inactive) |  | > 100 µM (inactive) | > 100 µM (inactive) | > 100 µM (inactive) | > 100 µM (inactive) | > 100 µM (inactive) | > 100 µM (inactive) | > 100 µM (inactive) | > 100 µM (inactive) | > 100 µM (inactive) | > 100 µM (inactive) | > 100 µM (inactive) | > 100 µM (inactive) | 
5 | NS(=O)(=O)c1nnc(NS(=O)(=O)c2ccccc2[N+](=O)[O-])s1 | > 100 µM (inactive) | > 100 µM (inactive) | > 100 µM (inactive) | > 100 µM (inactive) | > 100 µM (inactive) | > 100 µM (inactive) | > 100 µM (inactive) | > 100 µM (inactive) | > 100 µM (inactive) | > 100 µM (inactive) | > 100 µM (inactive) | > 100 µM (inactive) |  | > 100 µM (inactive) | > 100 µM (inactive) | > 100 µM (inactive) |  | > 100 µM (inactive) | > 100 µM (inactive) | 
6 | O=C(O)c1ccc2c(c1)Cc1cc([N+](=O)[O-])ccc1-2 | 52.1 µM (inactive) | > 100 µM (inactive) |  | > 100 µM (inactive) | > 100 µM (inactive) | > 100 µM (inactive) | > 100 µM (inactive) | > 100 µM (inactive) | > 100 µM (inactive) | > 100 µM (inactive) | 86.1 µM (inactive) | 90.8 µM (inactive) | 44.1 µM (inactive) | > 100 µM (inactive) | 30.5 µM (inactive) | > 100 µM (inactive) | > 100 µM (inactive) | > 100 µM (inactive) | > 100 µM (inactive) | 
7 | Cc1cc(S(=O)(=O)Nc2nc3cc(-c4ccc(Cl)cc4)sc3c(=O)n2N)c(S)cc1Cl |  |  | 63.2 µM (inactive) | 17 µM (inactive) |  | 39.4 µM (inactive) | 62.2 µM (inactive) | 40.3 µM (inactive) | 62.4 µM (inactive) | 36.3 µM (inactive) |  | 33.3 µM (inactive) | 65 µM (inactive) | 75.2 µM (inactive) | 72.9 µM (inactive) | > 100 µM (inactive) | 50.6 µM (inactive) | 36.5 µM (inactive) | 51.1 µM (inactive) | 53.8 µM (inactive)
8 | CC(C)(C)OC/C=C(/CO)[C@@H]1C=C[C@H](O)C1 | > 100 µM (inactive) |  | > 100 µM (inactive) | > 100 µM (inactive) | > 100 µM (inactive) | > 100 µM (inactive) | > 100 µM (inactive) | > 100 µM (inactive) |  | > 100 µM (inactive) |  | > 100 µM (inactive) | > 100 µM (inactive) | > 100 µM (inactive) |  | > 100 µM (inactive) | > 100 µM (inactive) | > 100 µM (inactive) |  | > 100 µM (inactive)
9 | Clc1ccc(-c2c(C3=NCCCN3)nnn2-c2ccccc2)cc1 | > 100 µM (inactive) | 17.6 µM (inactive) |  | 34.9 µM (inactive) | > 100 µM (inactive) | 20.2 µM (inactive) |  | 43.1 µM (inactive) | > 100 µM (inactive) | > 100 µM (inactive) | 56.1 µM (inactive) | > 100 µM (inactive) | > 100 µM (inactive) | > 100 µM (inactive) | 34.9 µM (inactive) | > 100 µM (inactive) | > 100 µM (inactive) | > 100 µM (inactive) | > 100 µM (inactive) | 
10 | CC(=O)Nc1ccc(SC#N)c2c(NC(C)=O)cccc12 | > 100 µM (inactive) | 24.1 µM (inactive) |  | > 68.4 µM (inactive) | > 100 µM (inactive) | 43.1 µM (inactive) |  | > 86.3 µM (inactive) | > 47.6 µM (inactive) | > 100 µM (inactive) | 33.6 µM (inactive) | > 100 µM (inactive) | > 100 µM (inactive) | > 100 µM (inactive) | 50.7 µM (inactive) | > 100 µM (inactive) | > 100 µM (inactive) | 84.3 µM (inactive) | > 100 µM (inactive) | 
11 | CCOC(=O)C1(Br)S(=O)(=O)OCCOS1(=O)=O | > 100 µM (inactive) | > 100 µM (inactive) |  | > 100 µM (inactive) | > 100 µM (inactive) | > 100 µM (inactive) |  | > 100 µM (inactive) | > 100 µM (inactive) | > 100 µM (inactive) | > 100 µM (inactive) | > 100 µM (inactive) | > 100 µM (inactive) | > 100 µM (inactive) | > 100 µM (inactive) | > 100 µM (inactive) | > 100 µM (inactive) | > 100 µM (inactive) | > 100 µM (inactive) | 
12 | O=C1C[S+]([O-])c2ccccc2N1 (stereo unspecified) | > 100 µM (inactive) | > 100 µM (inactive) |  | 30.8 µM (inactive) | > 100 µM (inactive) |  |  | 71.1 µM (inactive) | > 100 µM (inactive) | > 100 µM (inactive) | 45.5 µM (inactive) | > 100 µM (inactive) | > 100 µM (inactive) | > 100 µM (inactive) | > 100 µM (inactive) | > 100 µM (inactive) | > 100 µM (inactive) | 55.1 µM (inactive) | > 100 µM (inactive) | 
13 | Cc1cccc(C)c1N1C(=O)C(=O)C(c2nc3ccccc3s2)/C(=N/NC(=O)c2ccccc2O)C1=O (stereo unspecified) | 13.7 µM (inactive) | 12.5 µM (inactive) |  | 27.4 µM (inactive) | 6.87 µM (inactive) | 22.4 µM (inactive) |  | 10.3 µM (inactive) | 8.77 µM (inactive) | 9.18 µM (inactive) | 8.45 µM (inactive) | 33.3 µM (inactive) | 23.3 µM (inactive) | 11 µM (inactive) | 15.7 µM (inactive) | 11.7 µM (inactive) | 18.4 µM (inactive) | 28 µM (inactive) | 16.2 µM (inactive) | 
14 | S=C(S)N1CCN(c2ccc(Cl)c(Cl)c2)CC1 |  | 20.9 µM (inactive) | 19.6 µM (inactive) | 18.2 µM (inactive) | 24.3 µM (inactive) | 21.7 µM (inactive) | 17.6 µM (inactive) | 13.9 µM (inactive) | 21.6 µM (inactive) | 29.5 µM (inactive) |  | 28.7 µM (inactive) | > 10 µM (inactive) | 17 µM (inactive) | 22.3 µM (inactive) | 45.8 µM (inactive) | 30.1 µM (inactive) | 25.4 µM (inactive) | 16.1 µM (inactive) | 19.3 µM (inactive)
15 | Nc1nc(N)c2cc(S(=O)(=O)c3ccc4ccccc4c3)ccc2n1 |  | > 100 µM (inactive) | 1.58 µM (inactive) |  | 3.33 µM (inactive) |  | 3.3 µM (inactive) | 0.495 µM (active) | 3.9 µM (inactive) | 4.63 µM (inactive) |  | 1.55 µM (inactive) | 0.142 µM (active) | 43.4 µM (inactive) | 5.86 µM (inactive) | 0.718 µM (active) | 7.69 µM (inactive) | > 100 µM (inactive) | 11.9 µM (inactive) | 
16 | O=C1Cc2c([nH]c3ccc(Br)cc23)-c2cc(Br)ccc2N1 | > 100 µM (inactive) |  | > 100 µM (inactive) | > 100 µM (inactive) | > 100 µM (inactive) | > 100 µM (inactive) | > 100 µM (inactive) |  |  |  |  | > 100 µM (inactive) | > 100 µM (inactive) | > 100 µM (inactive) | > 100 µM (inactive) | > 100 µM (inactive) |  | > 100 µM (inactive) | > 100 µM (inactive) | 
